{"source": "paper PMC8551122", "about": "“Characterization and Modeling of Thermostable GH50 Agarases from Microbulbifer elongatus PORT2” (Marine Biotechnology (New York, N.y.), 2021)", "target": "T1, AgaB50 (Microbulbifer elongatus, UniProt A0A516UX44)", "T1 construct": "full-length precursor 769 aa; 26 N-terminal residues (SPII lipoprotein signal peptide) deleted; N-terminal His6 tag; E. coli BL21 (DE3), pFO4; about 82 kDa", "T1 sequence (A0A516UX44 1-743)": "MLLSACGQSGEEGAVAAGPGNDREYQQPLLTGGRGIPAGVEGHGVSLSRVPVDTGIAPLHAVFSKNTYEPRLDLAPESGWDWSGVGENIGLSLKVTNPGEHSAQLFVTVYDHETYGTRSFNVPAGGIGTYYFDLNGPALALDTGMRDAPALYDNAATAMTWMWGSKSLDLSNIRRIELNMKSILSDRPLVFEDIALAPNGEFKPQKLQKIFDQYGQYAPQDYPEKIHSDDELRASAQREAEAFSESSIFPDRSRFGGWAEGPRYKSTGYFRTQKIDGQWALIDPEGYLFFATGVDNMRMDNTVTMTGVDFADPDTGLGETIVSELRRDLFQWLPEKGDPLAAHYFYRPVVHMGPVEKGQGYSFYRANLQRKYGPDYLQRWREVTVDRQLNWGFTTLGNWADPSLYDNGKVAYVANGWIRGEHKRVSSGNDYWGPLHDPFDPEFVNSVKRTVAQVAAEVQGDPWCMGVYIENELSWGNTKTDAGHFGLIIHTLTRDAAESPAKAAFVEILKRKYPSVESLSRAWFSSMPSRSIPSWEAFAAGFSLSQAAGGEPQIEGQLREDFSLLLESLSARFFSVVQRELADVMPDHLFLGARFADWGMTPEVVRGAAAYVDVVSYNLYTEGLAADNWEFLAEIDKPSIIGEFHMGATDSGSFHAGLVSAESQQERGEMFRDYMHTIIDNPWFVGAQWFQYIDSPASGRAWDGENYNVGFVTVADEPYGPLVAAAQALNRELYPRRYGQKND", "experiment": "HPLC-RID product analysis, end point", "assay_type": "biochemical", "conditions": "[…] in ultrapure water, […] °C, overnight", "data": [{"compound": "OC[C@H]1O[C@@H](O[C@H]2[C@H]3OC[C@@H]2O[C@@H](O[C@H]2[C@@H](O)[C@@H](CO)O[C@@H](O[C@H]4[C@H]5OC[C@@H]4O[C@@H](O[C@H]4[C@@H](O)[C@@H](CO)O[C@@H](O[C@H]6[C@H]7OC[C@@H]6O[C@@H](O[C@H]6[C@@H](O)[C@@H](CO)OC(O)[C@@H]6O)[C@H]7O)[C@@H]4O)[C@H]5O)[C@@H]2O)[C@H]3O)[C@H](O)[C@@H](O[C@@H]2O[C@H]3CO[C@@H]([C@@H]2O)[C@@H]3O)[C@H]1O", "note": "(stereo partly shown) [NA8, neoagarooctaose]", "values": [{"measurement": "HPLC-RID product analysis, end point", "result": "AgaB50 was able to convert larger NAOS such as NA8, NA6, and NA4"}]}]}
